Data taken from patent publication US20050107386A1, “Methods of treating diseases and disorders by targeting multiple kinases” (priority 2003, published 2005).

Experiments:
Settings in all cases: 3 μM; percent of control kinase activity
[1] = test system: AMPK(r); assay: AMPK(r) kinase assay; format: biochemical, rat
Experimental: (§1) Six compounds (presumptive single agents) were tested against a panel of 50 kinases. The results are presented in Table 2; numbers for each kinase indicate the percent of control kinase activity in the presence of a 3μM concentration of the indicated agent.
(§2) Agents that target two or more different kinases are useful in the methods of the invention as described elsewhere herein. Such compounds may be identified, and their effect on certain kinases may be identified, using the assays briefly described below in Examples 4-83. Each of these assays was carried out as described in Davies et al., Biochem. J., 351:95-105 (2000). All assays were carried out at 10 μM ATP unless otherwise noted.
In a final reaction volume of 25 μl, AMPK(r) (5-10 mU) is incubated with 50 mM Hepes pH 7.4, 1 mM DTT, 0.02% Brij-35, 200 μM AMP, 200 μM […] (SEQ ID NO:4), 10 mM MgAcetate and [γ-^33P-ATP] (Specific activity approx. 500 cpm/pmol, concentration as required). The reaction is initiated by the addition of Mg^2+ [γ-^33P-ATP]. After incubation for 40 minutes at room temperature, the reaction is stopped by the addition of 5 μl of a 3% phosphoric acid solution. 10 μl of the reaction is then spotted onto a P30 filtermat and washed three times for 5 minutes in 75 mM phosphoric acid and once in methanol prior to drying and scintillation counting.

[2] = target: CDK3/cyclinE(h) (Homo sapiens, UniProt Q00526); assay: CDK3/cyclinE(h) kinase assay; format: biochemical
CDK3/cyclinE(h), sequence (Q00526 whole entry): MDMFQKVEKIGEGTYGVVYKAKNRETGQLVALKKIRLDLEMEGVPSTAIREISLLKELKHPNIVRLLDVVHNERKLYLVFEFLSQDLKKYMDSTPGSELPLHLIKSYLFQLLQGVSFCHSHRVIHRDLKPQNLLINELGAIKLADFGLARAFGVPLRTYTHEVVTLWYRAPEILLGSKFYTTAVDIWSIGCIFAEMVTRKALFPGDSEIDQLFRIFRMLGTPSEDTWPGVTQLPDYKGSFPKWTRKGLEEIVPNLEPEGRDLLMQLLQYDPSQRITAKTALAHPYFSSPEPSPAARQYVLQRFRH
CDK3/cyclinE(h), sequence (P24864 whole entry partner): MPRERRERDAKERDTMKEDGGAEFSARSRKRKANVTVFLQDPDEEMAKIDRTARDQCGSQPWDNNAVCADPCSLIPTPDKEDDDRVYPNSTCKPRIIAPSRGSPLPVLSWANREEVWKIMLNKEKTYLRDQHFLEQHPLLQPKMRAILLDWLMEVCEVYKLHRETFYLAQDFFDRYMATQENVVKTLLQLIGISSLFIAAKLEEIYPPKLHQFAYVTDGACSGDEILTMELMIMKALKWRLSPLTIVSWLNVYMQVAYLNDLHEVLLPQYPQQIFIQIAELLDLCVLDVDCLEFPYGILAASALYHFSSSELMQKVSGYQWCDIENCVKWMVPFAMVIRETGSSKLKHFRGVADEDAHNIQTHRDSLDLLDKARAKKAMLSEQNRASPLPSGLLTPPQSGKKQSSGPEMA
Experimental: as §1, §2
(§3) In a final reaction volume of 25 μl, CDK3/cyclinE (h) (5-10 mU) is incubated with 8 mM MOPS pH 7.0, 0.2 mM EDTA, 0.1 mg/ml histone H1, 10 mM MgAcetate and [γ-^33P-ATP] (specific activity approx. 500 cpm/pmol, concentration as required). The reaction is initiated by the addition of Mg^2+ [γ-^33P-ATP]. After incubation for 40 minutes at room temperature, the reaction is stopped by the addition of 5 μl of a 3% phosphoric acid solution. 10 μl of the reaction is then spotted onto a P30 filtermat and washed three times for 5 minutes in 75 mM phosphoric acid and once in methanol prior to drying and scintillation counting.

[3] = target: T1, CHK1(h) (Homo sapiens, UniProt O14757); assay: CHK1(h) kinase assay; format: biochemical
T1 sequence (O14757 1-476): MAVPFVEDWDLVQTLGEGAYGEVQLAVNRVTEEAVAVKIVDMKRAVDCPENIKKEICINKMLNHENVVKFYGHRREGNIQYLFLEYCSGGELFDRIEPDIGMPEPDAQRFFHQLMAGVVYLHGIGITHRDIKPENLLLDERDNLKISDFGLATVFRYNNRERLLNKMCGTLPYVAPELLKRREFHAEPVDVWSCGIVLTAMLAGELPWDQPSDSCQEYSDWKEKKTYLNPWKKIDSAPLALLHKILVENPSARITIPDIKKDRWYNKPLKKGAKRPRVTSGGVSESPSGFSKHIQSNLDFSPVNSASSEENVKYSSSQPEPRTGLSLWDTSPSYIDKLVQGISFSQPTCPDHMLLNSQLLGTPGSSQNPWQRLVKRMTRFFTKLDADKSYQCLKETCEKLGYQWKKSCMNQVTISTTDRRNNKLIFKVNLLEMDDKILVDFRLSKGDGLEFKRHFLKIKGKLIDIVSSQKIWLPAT
Experimental: as §1, §2
as §3, with “CHK1(h)” for “CDK3/cyclinE (h)”, “7.0,0.2” for “7.0, 0.2”, “200 μM […] (SEQ ID NO:5),” for “0.1 mg/ml histone H1,”

[4] = target: Lck(h) (Homo sapiens, UniProt P06239); assay: Lck(h) kinase assay; format: biochemical
Lck(h), sequence (P06239 whole entry): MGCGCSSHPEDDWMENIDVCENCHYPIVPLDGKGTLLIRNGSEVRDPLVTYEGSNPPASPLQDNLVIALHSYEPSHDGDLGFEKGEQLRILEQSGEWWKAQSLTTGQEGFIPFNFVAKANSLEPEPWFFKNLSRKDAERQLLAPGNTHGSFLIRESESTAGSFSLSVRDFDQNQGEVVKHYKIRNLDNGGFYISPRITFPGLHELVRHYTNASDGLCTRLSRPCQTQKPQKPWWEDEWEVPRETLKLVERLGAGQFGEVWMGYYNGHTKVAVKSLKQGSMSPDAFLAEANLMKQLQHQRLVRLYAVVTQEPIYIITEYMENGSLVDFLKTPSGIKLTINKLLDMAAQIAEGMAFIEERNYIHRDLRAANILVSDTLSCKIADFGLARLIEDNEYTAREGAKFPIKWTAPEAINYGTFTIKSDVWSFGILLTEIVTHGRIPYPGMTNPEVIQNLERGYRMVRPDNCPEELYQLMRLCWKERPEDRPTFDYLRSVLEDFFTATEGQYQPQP
Experimental: as §1, §2
In a final reaction volume of 25 μl, Lck(h) (5-10 mU) is incubated with 50 mM Tris pH 7.5, 0.1 mM EGTA, 0.1 mM NaVanadate, 250 μM […] (Cdc2 peptide; SEQ ID NO:7), 10 mM MgAcetate and [γ-^33P-ATP] (specific activity approx. 500 cpm/pmol, concentration as required). The reaction is initiated by the addition of Mg^2+ [γ-^33P-ATP]. After incubation for 40 minutes at room temperature, the reaction is stopped by the addition of 5 μl of a 3% phosphoric acid solution. 10 μl of the reaction is then spotted onto a P30 filtermat and washed three times for 5 minutes in 75 mM phosphoric acid and once in methanol prior to drying and scintillation counting.

[5] = target: PAK2(h) (Homo sapiens, UniProt Q13177); assay: PAK2(h) kinase assay; format: biochemical
PAK2(h), sequence (Q13177 whole entry): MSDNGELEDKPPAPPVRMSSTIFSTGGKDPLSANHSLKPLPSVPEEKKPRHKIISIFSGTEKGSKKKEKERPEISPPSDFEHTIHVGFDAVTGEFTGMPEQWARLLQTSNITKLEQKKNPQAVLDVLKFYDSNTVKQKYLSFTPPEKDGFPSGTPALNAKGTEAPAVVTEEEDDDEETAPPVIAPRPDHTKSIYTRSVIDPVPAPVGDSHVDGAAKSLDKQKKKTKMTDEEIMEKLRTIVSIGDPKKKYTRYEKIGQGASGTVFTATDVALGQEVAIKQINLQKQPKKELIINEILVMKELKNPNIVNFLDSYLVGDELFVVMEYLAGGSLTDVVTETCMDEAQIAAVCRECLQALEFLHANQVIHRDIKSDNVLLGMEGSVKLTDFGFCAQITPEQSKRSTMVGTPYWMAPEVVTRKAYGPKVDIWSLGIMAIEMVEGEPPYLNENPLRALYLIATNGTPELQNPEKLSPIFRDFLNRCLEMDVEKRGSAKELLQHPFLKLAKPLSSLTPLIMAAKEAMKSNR
Experimental: as §1, §2
as §3, with “PAK2(h)” for “CDK3/cyclinE (h)”, “30 μM […] (SEQ ID NO:8),” for “0.1 mg/ml histone H1,”

[6] = target: Rsk3(h) (Homo sapiens, UniProt Q15349); assay: Rsk3(h) kinase assay; format: biochemical
Rsk3(h), sequence (Q15349 whole entry): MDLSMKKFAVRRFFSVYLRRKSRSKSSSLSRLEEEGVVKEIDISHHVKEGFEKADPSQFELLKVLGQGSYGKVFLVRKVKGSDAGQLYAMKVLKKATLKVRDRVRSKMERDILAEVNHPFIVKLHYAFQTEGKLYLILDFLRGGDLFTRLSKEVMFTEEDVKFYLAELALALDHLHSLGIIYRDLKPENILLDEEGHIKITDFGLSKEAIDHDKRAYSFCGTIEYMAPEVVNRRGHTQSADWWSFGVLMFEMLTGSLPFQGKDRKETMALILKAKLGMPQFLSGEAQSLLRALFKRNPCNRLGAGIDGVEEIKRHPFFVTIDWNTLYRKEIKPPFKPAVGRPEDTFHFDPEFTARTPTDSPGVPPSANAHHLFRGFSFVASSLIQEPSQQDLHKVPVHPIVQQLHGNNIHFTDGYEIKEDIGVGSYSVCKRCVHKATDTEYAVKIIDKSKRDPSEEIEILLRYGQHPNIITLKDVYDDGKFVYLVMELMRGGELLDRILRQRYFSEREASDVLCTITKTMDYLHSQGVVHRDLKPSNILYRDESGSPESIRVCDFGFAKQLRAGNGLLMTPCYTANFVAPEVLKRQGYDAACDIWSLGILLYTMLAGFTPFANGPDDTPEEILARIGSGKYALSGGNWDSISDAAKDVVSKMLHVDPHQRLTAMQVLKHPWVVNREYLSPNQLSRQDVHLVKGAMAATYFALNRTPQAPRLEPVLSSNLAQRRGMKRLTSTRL
Experimental: as §1, §2
as §3, with “Rsk3” for “CDK3/cyclinE”, “30 μM […] (SEQ ID NO:11),” for “0.1 mg/ml histone H1,”

| Inhibitory activity (% of control), AMPK(r) [1] | Inhibitory activity (% of control), CDK3/cyclinE(h) [2] | Inhibitory activity (% of control), CHK1(h) [3] | Inhibitory activity (% of control), Lck(h) [4] | Inhibitory activity (% of control), PAK2(h) [5] | Inhibitory activity (% of control), Rsk3(h) [6] | Structure (SMILES) |
| --- | --- | --- | --- | --- | --- | --- |
| 4 % of control | 36 % of control | 12 % of control | 5 % of control | 21 % of control | 5 % of control | CC(C)Cc1nc(-c2ccc3[nH]nc(-c4ccc5cc(OCCN6CCCC6)ccc5c4)c3c2)n[nH]1 [CC002, 5-(5-Isobutyl-1H-[1,2,4]Triazol-3-yl)-3-[6-(2-Pyrrolidin-1-yl-Ethoxy)-Naphthalen-2-yl]-1H-Indazole] |
| 74 % of control | 15 % of control | 70 % of control | 43 % of control | 56 % of control | 39 % of control | Fc1ccc(-c2n[nH]c3ccc(-c4n[nH]c(C5CCCC5)n4)cc23)cc1 [CC006, 5-(5-Cyclopentyl-1H-[1,2,4]triazol-3-yl)-3-(4-fluoro-phenyl)-1H-indazole, reference compound] |
| 74 % of control | 73 % of control | 90 % of control | 56 % of control | 86 % of control | 38 % of control | O=C(NC1CCCC1)c1cccc(-c2n[nH]c3ccc(-c4nc[nH]n4)cc23)c1 [CC007, 3-(5-(1H-1,2,4-triazol-3-yl)(1H-indazol-3-yl))phenyl-N-cyclopentylcarboxamide, reference compound] |

Second part, the compound before the results:

| Structure (SMILES) | Inhibitory activity (% of control), AMPK(r) [1] | Inhibitory activity (% of control), CDK3/cyclinE(h) [2] | Inhibitory activity (% of control), CHK1(h) [3] | Inhibitory activity (% of control), Lck(h) [4] | Inhibitory activity (% of control), PAK2(h) [5] | Inhibitory activity (% of control), Rsk3(h) [6] |
| --- | --- | --- | --- | --- | --- | --- |
| COc1ccc2cc(-c3n[nH]c4ccc(-c5n[nH]c(CN6CCOCC6)n5)cc34)ccc2c1 [CC001, 3-(6-Methoxynaphthalen-2-yl)-5-(5-Morpholin-4-Ylmethyl-1H-[1,2,4]Triazol-3-yl)-1H-Indazole] | 52 % of control | 31 % of control | 36 % of control | 27 % of control | 68 % of control | 4 % of control |
| CC(C)(C)Cc1nc(-c2ccc3[nH]nc(-c4ccc5cc(OCc6ccccn6)ccc5c4)c3c2)n[nH]1 [CC004, 5-[5-(2,2-Dimethyl-propyl)-1H-[1,2,4]triazol-3-yl]-3-[6-(pyridine-2-ylmethoxy)-naphthalen-2-yl]-1H-indazole] | 54 % of control | 39 % of control | 64 % of control | 57 % of control | 62 % of control | 43 % of control |
| CCN1CCC[C@H]1COc1ccc2cc(-c3n[nH]c4ccc(-c5nc(CC(C)(C)C)n[nH]5)cc34)ccc2c1 [CC005, 2-[((2s)-1-ethylpyrrolidin-2-yl)methoxy]-6-{5-[3-(2,2-Dimethylpropyl)(1H-1,2,4,-triazol-5-yl)](1H-indazol-3-yl)}naphthalene] | 2 % of control | 25 % of control | 6 % of control | 6 % of control | 13 % of control | 4 % of control |
